Source: patent US20090111177A1, “Maintenance of Embryonic Stem Cells by the GSK-3 Inhibitor 6-Bromoindirubin-3'-Oxime” (THE ROCKEFELLER UNIVERSITY, priority 2003, published 2009)

Tests used:
[1] = test system: HESCs (H1, BGN1); test: Feeder-free culture of HESCs, undifferentiated morphology; assay type: cell-based, human; conditions: for morphology / undifferentiated phenotype of HESCs: feeder-free, non-conditioned medium, 6-bromoindirubin-3′-oxime and Me analogue 2 μM, LiCl 5 mM, Wnt3a protein
Description: (§1) Cell culture. Human embryonic stem cells (HESCs) lines were provided by WiCell Research Institute (H1 line)^5 and BresaGen Inc. (BGN1 and BGN2 lines). H1 cells were cultivated on irradiated mouse embryonic fibroblasts (MEFs) in medium consisting of 80% DMEM/F12 medium, 20% knockout serum replacement (KSR), 1 mM L-glutamine, 1% non-essential amino acids, 0.1 mM β-mercaptoethanol, and 4 ng/ml basic FGF (all from Invitrogen). […] Subsequently, HESCs were cultured on Matrigel (BD biosciences) in medium conditioned by MEFs, and passaged several times until colonies became free from contaminating MEFs as described before^9.

[2] = test system: Oct-3/4; test: Oct-3/4 immunocytochemistry in HESCs; assay type: cell-based, human; conditions: HESCs in non-conditioned medium; FIG. 4c
Description: as §1
Immunofluorescence. Cells were fixed in 4% paraformaldehyde for 20 min at room temperature and incubated overnight at 4° C. with primary antibodies against Oct-4 (BD Biosciences), β-catenin (BD Biosciences), Tuj-1 (BAbCO), cytokeratin (Sigma), glial fibrillary acidic protein, GFAP, (Dako), smooth muscle actin (Research Diagnostics Inc), α-fetoprotein (α-FP, Cell Sciences) and Tromal (Developmental Studies Hybridoma Bank). For nuclear localization analysis, the fixed samples were subjected to fluorescent digital confocal imaging analysis using a Zeiss LSM 510 confocal microscope (Carl Zeiss). For mouse embryonic tissue sections, mid gestation embryos were fixed in 4% paraformaldehyde followed by paraffin embedding and tissue sectioning. After deparaffinization, tissue sections were incubated with a GFP-specific antibody (Molecular Probe) at 4° C. overnight. Antigens were localized by using goat anti-mouse IgG conjugated to Cy3 or goat anti-rabbit IgG conjugated to Cy2 (Zymed laboratories). For the quantitative image analysis, fluorescent images from triplicate samples were taken by the Discovery1 system (Universal Imaging Corporation). The fluorescent objects were selected by the threshold function and evaluated in five regions of each well by quantification of pixel intensities and the object size by using MetaMorph software (Universal Imaging Corporation).

[3] = test system: canonical Wnt pathway (TCF binding sites, TopFlash); test: TopFlash/FopFlash luciferase reporter assay in CJ7 cells (MESCs); assay type: cell-based, mouse; conditions: CJ7 cells (MESCs); FIG. 2b
Description: (§2) Luciferase assay. […] Test compounds were added 24 hrs after transfection. Following incubation for 24 hrs, cells were harvested, and analyzed by the dual luciferase reporter assay system (Promega) using Lumat (Berthold Technologies). Each value was standardized by Renilla luciferase activity.
The canonical Wnt signal occurs through binding of the Wnt protein to the Frizzled receptor at cell surface. It is followed by inactivation of GSK-3, leading to accumulation of β-catenin in the nucleus that activates the transcription of Wnt target genes in collaboration with TCFs^18,19. Alternatively, Wnt signaling can be activated by direct, intracellular inhibition of the GSK-3 function using specific inhibitors^20. […] First we examined whether mouse and human ESCs were capable of transducing Wnt signaling under the influence of 6-bromoindirubin-3′-oxime. […] We then evaluated expression of β-catenin at the cellular level as a read-out of the activation status of the canonical Wnt pathway in HESCs.

[4] = test system: β-catenin; test: β-catenin immunofluorescence confocal analysis in HESCs; assay type: cell-based, human; conditions: compared to non-conditioned medium treated cells, FIG. 2c
Description: as §1
Immunofluorescence. […] For the quantitative image analysis, fluorescent images from triplicate samples were taken by the Discovery1 system (Universal Imaging Corporation). The fluorescent objects were selected by the threshold function and evaluated in five regions of each well by quantification of pixel intensities and the object size by using MetaMorph software (Universal Imaging Corporation).

[5] = test system: Rex-1 promoter; test: Rex-1 YFP reporter line CJRex-Y (imaging / FACS); assay type: cell-based, mouse; conditions: CJRex-Y cells, 5 d
Description: Generation of stable mouse ES lines. CJ7 ES cells were transfected with pRex-1-Venus, pTY or pCAG-HygEGFP by using Lipofectamine 2000 (Invitrogen) followed by G418 (Invitrogen) selection at 200 μg/ml (for CJRex-Y or CJ-TY) or hygromycine (Invitrogen) selection at 600 μg/ml (for CJ-GFP). Two weeks after the drug selection, a number of single colonies were picked up, expanded and used for the further analyses.
FACS analysis of MESCs. We cultured CJRex-Y cells at a low density (500 cells/cm^2) on gelatin-coated 10 cm dishes in mouse ES cell medium alone, medium containing LIF, medium conditioned from wild type L cells or medium conditioned from Wnt3a-L cells (ATCC) for 5 days. The Wnt3a conditioned medium was prepared according to the provider's protocol. Cells were harvested, resuspended in mouse ES medium and subjected to FACS analysis using FACSVantage SE system (BD Biosciences).

[6] = test system: CJ-GFP cells (MESCs); test: Low-density culture of CJ-GFP MESCs without LIF, morphology; assay type: cell-based, mouse; conditions: 1 μM; 7 d plus 5 d at low density; data not shown for Me analogue
Description: Teratoma formation. We grew CJ-GFP cells at a low density (500 cells/cm^2) on gelatin-coated 10 cm dishes in medium containing 6-bromoindirubin-3′-oxime 1 μM for 7 d, then passaged cells at the same density and cultured under the same condition another 5 d to further enforce differentiation of cells.

[7] = test system: GSK-3; conditions: from reference 10; cited from earlier work
[8] = test system: Rex-1 promoter; test: Rex-1 luciferase reporter assay in CJ7 cells; assay type: cell-based, mouse; conditions: CJ7 cells; compared to LIF-treated cells
From the text: Nat Biotechnol 20, 87-90), a small fragment containing the TCF binding sites and the cFos promoter in pTopFlash was excised by XbaI digestion, and cloned into pcDNA3-Venus in which Venus was introduced into the multiple cloning site between BamHI and EcoRI of the pcDNA3 vector (Invitrogen) whose CMV promoter was eliminated by BglII and HindIII digestion. […] To generate the Rex-1-Venus reporter construct, the Rex-1 promoter region was cloned into pcDNA3-Venus.
as §2

[9] = test system: cyclin D1; test: cyclin D1 immunofluorescence in HESCs; assay type: cell-based, human; conditions: HESCs (BGN2); non-CM; 6-bromoindirubin-3′-oxime 1.0 μM or Wnt3a protein 100 ng; FIG. 7
Description: Immunofluorescence. HESCs were grown in conditioned medium (CM), non-CM, non-CM containing Me 6-bromoindirubin-3′-oxime (1.0 μM), non-CM containing 6-bromoindirubin-3′-oxime (1.0 μM) or non-CM containing recombinant mouse Wnt3a protein (100 ng/ml, R&D systems) for 5 d. Cells were fixed in 4% paraformaldehyde for 20 min at room temperature and incubated overnight at 4° C. with primary antibodies against cyclin D1 (Santa Cruz Technology, Santa Cruz, Calif.). Antigens were localized by using goat anti-rabbit IgG conjugated to Cy3 (Zymed laboratories).

For `[Cl-].[Li+]` [LiCl, reference compound], the “toxicity to HESCs” value ([1]; 10 mM, FIG. 4c) was “substantial toxicity” and the “morphology / undifferentiated phenotype of HESCs” value ([1]; 7 d) was “failed to maintain the undifferentiated phenotype”.

For `CN1C(=O)C(=C2Nc3ccccc3C2=NO)c2ccc(Br)cc21` [Me 6-bromoindirubin-3′-oxime, 1-methyl-6-bromoindirubin-3′-oxime, reference compound], the “Oct-3/4 expression at the cellular level” value [2] was “remarkable reduction of Oct-3/4 expression”, the TopFlash reporter activity [3] was “did not show any change in activity” and the “nuclear accumulation of β-catenin” value [4] was “did not show obvious difference”. For the same molecule, the “morphology / undifferentiated phenotype of HESCs” value ([1]; 7 d) was “fully flattened morphology”, the “colony morphology / cell shape” value ([5]; FIG. 3b) was “flattened cell shape” and the “Rex-1 transcriptional (YFP reporter) activity” value ([5]; absence of LIF) was “substantially lower activity”. For the same molecule, the “colony morphology of MESCs without LIF” value [6] was “large flat differentiated morphology”, the “GSK-3 / kinase inhibition” value [7] was “kinase-inactive” and the Rex-1 promoter activity [8] was “slightly reduced”.

In the case of Human-derived LIF: Human-derived LIF, the “prevention of HESC differentiation in non-conditioned medium” value ([1]; LIF up to 2,000 to 3,000 U/ml, 7 d) was “failed to prevent the differentiation”.

For Wnt3a, the “cyclin D1 expression” value [9] was “up-regulated cyclin D1 expression”, the “Oct-3/4 expression at the cellular level” value [2] was “high level of Oct-3/4 expression” and the “morphology / undifferentiated phenotype of HESCs” value ([1]; 7 d) was “maintain compact undifferentiated colonies”.
